From patent publication US4748161A, “Triterpenyl esters of organic acids and hypolipidemic agents composed of them” (Amano Pharmaceutical Co., Ltd., priority 1984, dated 1988)

System: serum lipids and serum lipid hydroperoxide
Assay: Pharmacological test method A for anti-hyperlipidemic activity (serum lipids, 2 weeks feeding)
Type: in vivo, male Wistar strain rats
Conditions: for AI [(TC - HDL-C)/(HDL-C)] / HDL-C in serum / LPO in serum / PL in serum / TC in serum / TG in serum: 1% in hyperlipidemic diet, 2 weeks; for AI % of diff. / AI Diff. / HDL-C % of diff. / HDL-C Diff. / LPO % of diff. / LPO Diff. / PL % of diff. / PL Diff. / TC % of diff. / TC Diff. / TG % of diff. / TG Diff.: versus control group
Procedure, shortened: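 Serum TC, HDL-C (heparin precipitation), PL, TG and LPO measured by colorimetric kits, largely at 500 nm, from abdominal aorta blood after 16 h fasting. Rats (male Wistar, 10/group) ate a cholesterol/cholic acid diet 10 g/day for 2 weeks, supplemented with 1% each of three cycloartane triterpenoids.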

Row | SMILES | AI [(TC - HDL-C)/(HDL-C)] | HDL-C in serum | LPO in serum | PL in serum | TC in serum | TG in serum | AI % of diff. | AI Diff. | HDL-C % of diff. | HDL-C Diff. | LPO % of diff. | LPO Diff. | PL % of diff. | PL Diff. | TC % of diff. | TC Diff. | TG % of diff. | TG Diff.
1 | CC(C)=CCCC(C)C1CCC2(C)C3CCC4C(C)(C)C(OC(=O)c5ccc(O)c(O)c5)CCC45CC35CCC12C (stereo not drawn) [Example 27, cycloartenyl-3,4-dihydroxybenzoate] | 0.955 | 95.2 mg/dL | 1.99 nmol/mL | 160.3 mg/dL | 186.1 mg/dL | 40.4 mg/dL | -43.3% | -0.729 | +17.7% | +14.3 mg/dl | -14.0% | -0.32 nmol/mL | -10.8% | -19.4 mg/dL | -14.3% | -31.0 mg/dL | -5.5% | -2.4 mg/dL
2 | CC(C)=CCCC(C)C1CCC2(C)C3CCC4C(C)(C)C(OC(=O)c5ccc(O)cc5)CCC45CC35CCC12C (stereo not drawn) [Example 10, cycloartenyl-p-hydroxybenzoate] | 1.543 | 57.6 mg/dL | 1.73 nmol/mL | 123.3 mg/dL | 146.5 mg/dL | 27.3 mg/dL | -12.7% | -0.224 | -4.3% | -2.6 mg/dL | -31.6% | -0.80 nmol/mL | -9.8% | -13.4 mg/dL | -12.1% | -20.1 mg/dL | +0.4% | +0.1 mg/dl
3 | CC(C)=C(C)CCC(C)C1CCC2(C)C3CCC4C(C)(C)C(OC(=O)c5cccc(N)c5)CCC45CC35CCC12C (stereo not drawn) [Example 49, cyclobranyl-m-aminobenzoate] | 1.288 | 58.0 mg/dL | 2.02 nmol/mL | 128.4 mg/dL | 132.7 mg/dL | 18.3 mg/dL | -30.3% | -0.559 | -1.2% | -0.7 mg/dL | -13.7% | -0.32 nmol/mL | -13.5% | -20.0 mg/dL | -20.6% | -34.4 mg/dL | -26.2% | -6.5 mg/dL
4 | COc1ccc(C(=O)OC2CCC34CC35CCC3(C)C(C(C)CCC=C(C)C)CCC3(C)C5CCC4C2(C)C)cc1 (stereo not drawn) [Example 14, cycloartenyl-p-methoxybenzoate] | 1.275 | 64.1 mg/dL | 1.81 nmol/mL | 120.9 mg/dL | 145.8 mg/dL | 25.4 mg/dL | -27.8% | -0.492 | +6.5% | +3.9 mg/dl | -28.5% | -0.72 nmol/mL | -11.6% | -15.8 mg/dL | -12.5% | -20.8 mg/dL | -6.6% | -1.8 mg/dL
5 | CC(C)=C(C)CCC(C)C1CCC2(C)C3CCC4C(C)(C)C(OC(=O)C=Cc5ccc(N)cc5)CCC45CC35CCC12C (stereo not drawn) [Example 104, cyclobranyl ester of p-aminocinnamic acid] | 3.205 | 48.7 mg/dL | 2.01 nmol/mL | 143.7 mg/dL | 204.8 mg/dL | 27.4 mg/dL | -59.1% | -4.635 | +32.0% | +11.8 mg/dl | -28.2% | -0.79 nmol/mL | -13.2% | -21.9 mg/dL | -37.2% | -121.4 mg/dL | -19.4% | -6.6 mg/dL
6 | CC(C)=CCCC(C)C1CCC2(C)C3CCC4C(C)(C)C(OC(=O)C=Cc5ccc(N)cc5)CCC45CC35CCC12C (stereo not drawn) [Example 102, cycloartenyl ester of p-amino-cinnamic acid] | 3.262 | 48.1 mg/dL | 2.02 nmol/mL | 140.9 mg/dL | 205.0 mg/dL | 26.7 mg/dL | -58.4% | -4.578 | +30.4% | +11.2 mg/dl | -27.9% | -0.78 nmol/mL | -14.9% | -24.7 mg/dL | -37.2% | -121.2 mg/dL | -21.5% | -7.3 mg/dL
7 | COc1ccccc1C(=O)OC1CCC23CC24CCC2(C)C(C(C)CCC=C(C)C)CCC2(C)C4CCC3C1(C)C (stereo not drawn) [Example 13, cycloartenyl-o-methoxybenzoate] | 1.388 | 60.5 mg/dL | 1.94 nmol/mL | 122.8 mg/dL | 144.5 mg/dL | 26.2 mg/dL | -21.4% | -0.379 | +0.5% | +0.3 mg/dl | -23.3% | -0.59 nmol/mL | -10.2% | -13.9 mg/dL | -13.3% | -22.1 mg/dL | -3.7% | -1.0 mg/dL
8 | C=C(CCC(C)C1CCC2(C)C3CCC4C(C)(C)C(OC(=O)CCCCCCC/C=C\C/C=C\CCCCC)CCC45CC35CCC12C)C(C)C (stereo not drawn) [Example 93, 24-Methylenecycloartanyl ester of linoleic acid] | 0.761 | 91.5 mg/dL | 1.70 nmol/mL | 150.2 mg/dL | 161.1 mg/dL | 35.1 mg/dL | -37.7% | -0.461 | +5.8% | +5.0 mg/dl | -24.3% | -0.54 nmol/mL | -13.0% | -22.4 mg/dL | -16.2% | -31.1 mg/dL | -3.3% | -1.2 mg/dL
9 | CCCCC/C=C\C/C=C\CCCCCCCC(=O)OC1CCC23CC24CCC2(C)C(C(C)CCC(C)=C(C)C)CCC2(C)C4CCC3C1(C)C (stereo not drawn) [Example 51, cyclobranyllinolate] | 0.623 | 96.4 mg/dL | 1.69 nmol/mL | 146.0 mg/dL | 156.5 mg/dL | 34.7 mg/dL | -49.0% | -0.599 | +11.5% | +9.9 mg/dl | -24.4% | -0.55 nmol/mL | -15.4% | -26.6 mg/dL | -18.6% | -35.7 mg/dL | -4.3% | -1.6 mg/dL
10 | COc1cc(C(=O)OC2CCC34CC35CCC3(C)C(C(C)CCC=C(C)C)CCC3(C)C5CCC4C2(C)C)ccc1O (stereo not drawn) [Example 29, cycloartenyl-4-hydroxy-3-methoxybenzoate] | 0.611 | 101.0 mg/dL | 1.95 nmol/mL | 160.6 mg/dL | 162.7 mg/dL | 32.7 mg/dL | -39.0% | -0.391 | +5.0% | +4.8 mg/dl | -16.3% | -0.38 nmol/mL | -11.2% | -20.3 mg/dL | -15.5% | -29.9 mg/dL | -1.5% | -0.5 mg/dL
11 | CCCOc1cc(C=CC(=O)OC2CCC34CC35CCC3(C)C(C(C)CCC=C(C)C)CCC3(C)C5CCC4C2(C)C)ccc1O (stereo not drawn) [Example 74, cycloartenyl-4-hydroxy-3-propoxycinnamate] | 0.787 | 92.4 mg/dL | 2.09 nmol/mL | 162.1 mg/dL | 165.1 mg/dL | 33.1 mg/dL | -21.5% | -0.215 | -4.0% | -3.8 mg/dL | -10.4% | -0.24 nmol/mL | -10.4% | -18.8 mg/dL | 14.3% | -27.5 mg/dL | -0.3% | -0.1 mg/dL
12 | CC(C)=C(C)CCC(C)C1CCC2(C)C3CCC4C(C)(C)C(OC(=O)c5ccccc5N)CCC45CC35CCC12C (stereo not drawn) [Example 47, cyclobranyl-o-aminobenzoate] | 1.811 | 53.4 mg/dL | 2.03 nmol/mL | 140.3 mg/dL | 150.1 mg/dL | 20.4 mg/dL | -1.9% | -0.036 | -9.0% | -5.3 mg/dL | -13.2% | -0.31 nmol/mL | -5.5% | -8.1 mg/dL | -10.2% | -17.0 mg/dL | -17.7% | -4.4 mg/dL
